Data published in patent US10011818B2, “Method for in vitro oocyte maturation” (CHINA AGRICULTURE UNIVERSITY, priority 2012, dated 2018).
Where two headings read alike, the source gives them in different places.

Experiments:
[1] = system: oocyte nuclear maturation; conditions: cited from earlier work
[2] = system: bovine oocytes; test: Effect of CNP pretreatment (pre-IVM) on meiotic resumption of bovine oocytes, nuclear morphology by DAPI staining; assay type: cell-based; conditions: for No. of GV oocytes / No. of GVBD oocytes / GV oocytes (%) / GVBD oocytes (%): pre-IVM 6 hours; for GV oocytes (%) / GVBD oocytes (%): mean ± SEM
Description: (§1) Bovine ovaries were obtained from a local slaughterhouse, transported at 30-35° C. to the laboratory within 1 hour, and washed in warmed normal saline containing 2% Penicillin G-Streptomycin. Ovarian antral follicles (3-8 mm) were aspirated using an 18-gauge needle. cumulus-oocyte complexes (COCs) with homogenous oocyte cytoplasm and complete, compacted, and multilayered CCs (Grade-1) or complete but fewer than three layers of CCs (Grade-2), were collected using micropipettes.
(§2) Grade-1 and -2 COCs were washed in the washing buffer (HEPES-TCM199) for three times, and then washed in pre-IVM medium (TCM199 containing 3 mg/ml BSA and CNP at different concentrations (50, 100, 200 and 400 nM) for two times. After that, COCs were transfer into pre-IVM medium (pre-warmed for 2 hours) in 4-well plate (500 μl pre-IVM medium and 50 COCs in each well) and cultured for 6 hours at 38.5° C., in humidified air with 5% CO2. After pre-IVM phase, a proportion of COCs are digested with hyaluronidase to remove cumulus cells. To determine the most preferable concentration of CNP for pre-VIM, meiosis kinetics of oocytes was evaluated according to nuclear morphology using DAPI staining under a fluorescence microscope. The oocytes without pre-IVM phase are used as control.

[3] = system: bovine oocytes; test: Effect of CNP pre-IVM and extended IVM on developmental rate of bovine oocytes after IVF (cleavage, blastocyst); assay type: cell-based; conditions: for No. of cleavage / cleavage (%) / No. of blastocysts / blastocysts (%): CNP 200 nM pre-IVM 6 h; for No. of cleavage: day 2; for cleavage (%): day 2, mean ± SEM; for No. of blastocysts: day 7; for blastocysts (%): day 7, mean ± SEM
Description: as §1, §2
After cultured in pre-IVM medium containing 200 nM CNP, COCs are further cultured in extended-IVM medium (TCM199 supplemented with 10 μg/ml FSH, […], 1 μg/ml E2, 10 ng/ml EGF, 10% FBS) at 38.5° C., in humidified air with 5% CO2. To determine the most preferable duration for extended-IVM, COCs were cultured for 24, 26 or 28 hours. In addition, COCs without pre-IVM phase, are also cultured in […] for 24, 26 or 28 hours as controls.
After maturation, the COCs were fertilized in BO medium for 8 hours at 39° C. under 5% CO2 in a humidified atmosphere. After fertilization, the presumptive zygotes were transferred to 100 μl CR1 culture medium droplets (15 zygotes in each droplets) at 39° C. in a humidified atmosphere. The culture medium was changed every 2 days during the culture period. The percentage cleavage and rates of subsequent embryo development to the blastocyst stage were recorded on day 2 and 7, respectively.

[4] = system: bovine oocytes and subsequent preimplantation embryos
[5] = system: oocyte meiotic arrest; conditions: mice, Zhang et al., 2010; cited from earlier work
[6] = system: oocyte maturation and embryonic development; conditions: CNP pretreatment 100 nM alone, without extended IVM; cited from earlier work
[7] = literature, chemical meiotic inhibitors

## CN(C)c1ncnc2nc[nH]c12 [6-DMAP]
[1]; [7]
  inhibitory effect on nuclear maturation: evident inhibitory effect

## C[C@@H]1C[C@@H]([C@H](O)CC2CC(=O)NC(=O)C2)C(=O)[C@@H](C)C1 [cycloheximide]
[1]; [7]
  inhibitory effect on nuclear maturation: evident inhibitory effect

## O=C1CCCO1 [butyrolactone]
[1]; [7]
  inhibitory effect on nuclear maturation: evident inhibitory effect

## C-type natriuretic peptide [CNP]
[2]; CNP 50 nM
  No. of GV oocytes: 64
  No. of GVBD oocytes: 37
  GV oocytes (%): 63.4 ± 3.1%
  GVBD oocytes (%): 21.3 ± 3.1%
[2]; CNP 100 nM
  No. of GV oocytes: 68
  No. of GVBD oocytes: 30
  GV oocytes (%): 69.4 ± 2.6%
  GVBD oocytes (%): 30.6 ± 2.6%
[2]; CNP 200 nM, P<0.01
  rate of oocytes maintaining at GV stage versus control: significant higher
[2]; CNP 200 nM
  No. of GV oocytes: 79
  No. of GVBD oocytes: 18
  GV oocytes (%): 81.4 ± 2.1%
  GVBD oocytes (%): 19.6 ± 2.1%
[2]; CNP 400 nM
  No. of GV oocytes: 79
  No. of GVBD oocytes: 27
  GV oocytes (%): 74.5 ± 2.8%
  GVBD oocytes (%): 25.5 ± 2.8%
[2]; concentration higher than 400 nM or lower than 100 nM
  inhibitory effect on meiotic resumption outside the range: no evident inhibitory effect
[2]; dose-dependent pattern, bovine oocytes
  concentration of maximal inhibitory effect on meiotic resumption: 200 nM
[2]; pre-IVM pretreatment, bovine oocytes
  concentration range with significant inhibition of oocyte meiotic resumption: 100 to 400 nM
[3]; extended-IVM 24 h, after IVF
  No. of cleavage: 157
  cleavage (%): 81.3 ± 2.7%
  No. of blastocysts: 53
  blastocysts (%): 27.5 ± 1.3%
[3]; extended-IVM 26 h, after IVF
  No. of cleavage: 89
  cleavage (%): 87.1 ± 0.75%
  No. of blastocysts: 62
  blastocysts (%): 28.6 ± 0.7%
[3]; extended-IVM 28 h, after IVF
  No. of cleavage: 186
  cleavage (%): 88.3 ± 3.0%
  No. of blastocysts: 80
  blastocysts (%): 37.4 ± 2.5%
[3]; CNP pre-IVM plus extended IVM (novel method)
  blastocyst rates: significantly enhances blastocyst rates
[3]; CNP pre-treatment followed by extended IVM phase, after IVF
  cleavage rates versus counterparts without CNP pre-IVM: significantly higher
[4]
  adverse effect on bovine oocytes and subsequent preimplantation embryos: doesn't show any evident adverse effect
[5]
  preferable concentration of CNP for meiotic inhibition: 100 nM
[6]
  oocyte maturation and embryonic development result: could not lead to an evidently satisfying results

## CC[C@H](CO)Nc1nc(NCc2ccccc2)c2ncn(C(C)C)c2n1 [roscovitine]
[1]
  inhibitory effect on nuclear maturation: evident inhibitory effect
